Active and inactive are the calls of the source.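 How the source made its calls: active means IC50 of 10 µM or lower; inactive means IC50 above 10 µM.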
biological target: Mitogen-activated protein kinase kinase kinase 5 (Homo sapiens) (UniProt Q99683); experiment: MAP3K5 inhibition concentration-response curves – biochemical, AlphaScreen, MKK6 phosphorylation, dose response (AID 1159605); conditions: ASK1 MKK6 phosphorylation, AlphaScreen luminescence;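 further: ASK1 phosphorylation of MKK6 substrate detected with anti-phospho-MKK6 antibody beads; inhibitors lower the luminescent signal by blocking MKK6 phosphorylation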
Sequence (Q99683 whole entry, looked up): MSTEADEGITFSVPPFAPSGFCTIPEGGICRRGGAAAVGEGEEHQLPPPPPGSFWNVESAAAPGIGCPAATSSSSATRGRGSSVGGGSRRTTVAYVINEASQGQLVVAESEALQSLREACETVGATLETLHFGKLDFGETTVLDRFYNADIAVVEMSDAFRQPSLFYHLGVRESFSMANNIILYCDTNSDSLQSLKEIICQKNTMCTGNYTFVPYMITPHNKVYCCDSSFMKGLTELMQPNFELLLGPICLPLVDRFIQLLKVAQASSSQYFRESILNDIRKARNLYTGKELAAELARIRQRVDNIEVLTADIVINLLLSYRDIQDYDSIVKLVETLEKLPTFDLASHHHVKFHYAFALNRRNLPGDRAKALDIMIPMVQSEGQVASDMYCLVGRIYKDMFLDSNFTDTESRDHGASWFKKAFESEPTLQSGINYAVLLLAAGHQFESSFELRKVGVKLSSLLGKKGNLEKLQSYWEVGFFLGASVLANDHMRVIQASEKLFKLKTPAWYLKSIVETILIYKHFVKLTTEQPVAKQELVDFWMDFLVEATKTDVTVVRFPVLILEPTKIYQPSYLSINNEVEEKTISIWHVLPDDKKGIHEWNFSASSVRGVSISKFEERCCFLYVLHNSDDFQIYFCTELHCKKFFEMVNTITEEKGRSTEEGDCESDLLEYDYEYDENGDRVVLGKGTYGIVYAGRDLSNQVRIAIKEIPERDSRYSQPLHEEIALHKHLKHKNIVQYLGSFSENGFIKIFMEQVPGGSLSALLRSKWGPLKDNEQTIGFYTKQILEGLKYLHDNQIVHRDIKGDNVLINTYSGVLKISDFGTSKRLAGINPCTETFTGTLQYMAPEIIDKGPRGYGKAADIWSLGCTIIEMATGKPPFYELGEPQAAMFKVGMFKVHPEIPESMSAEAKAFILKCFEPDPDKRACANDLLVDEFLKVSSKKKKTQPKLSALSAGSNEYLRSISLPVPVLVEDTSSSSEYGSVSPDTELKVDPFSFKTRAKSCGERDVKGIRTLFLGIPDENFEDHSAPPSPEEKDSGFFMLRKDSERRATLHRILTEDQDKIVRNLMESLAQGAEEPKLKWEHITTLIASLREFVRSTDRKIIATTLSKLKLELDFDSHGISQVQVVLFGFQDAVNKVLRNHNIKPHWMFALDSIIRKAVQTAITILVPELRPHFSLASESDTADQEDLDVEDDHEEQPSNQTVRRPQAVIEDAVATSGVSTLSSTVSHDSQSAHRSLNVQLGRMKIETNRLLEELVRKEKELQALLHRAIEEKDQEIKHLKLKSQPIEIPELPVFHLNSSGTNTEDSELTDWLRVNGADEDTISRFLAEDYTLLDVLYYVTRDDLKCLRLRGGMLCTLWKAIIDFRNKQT

SMILES | IC50
Fc1ccc(-c2c(-c3ccnc(Nc4ccc(N5CCOCC5)cc4)c3)noc2NCc2ccccc2)cc1 | > 19.2 µM (inactive)
FC(F)(F)c1cccc(CNc2nc(N3CCN(c4ccccn4)CC3)nc3c2ncn3-c2ccsc2)c1 | > 20 µM (inactive)
FC(F)(F)c1cccc(CNc2ccnc(Nc3ccc(N4CCOCC4)cc3)n2)c1 | inactive
c1cc(-n2cnc(N3CCOCC3)n2)ccc1Nc1ncc2ccc(-c3cn[nH]n3)cc2n1 | > 19.2 µM (inactive)
NC(=O)c1cc2ccccc2cc1Nc1ccnc(Nc2ccc(N3CCOCC3)cc2)c1 | > 19.2 µM (inactive)
c1ccc2c(c1)CCN(c1nccc(Nc3ccc(N4CCOCC4)cc3)n1)C2 | inactive
FC(F)(F)c1ccc(Cn2cnc3c(Nc4ccc(N5CCOCC5)cc4)nc(N4CCN(c5ccccn5)CC4)nc32)cc1 | > 20 µM (inactive)
O=C(NCCN1CCOCC1)c1cccc(-n2ncc3cc(Nc4c(F)cccc4[N+](=O)[O-])ccc32)c1 | > 19.2 µM (inactive)
Oc1ccc(CCNc2nc(N3CCN(c4ccccn4)CC3)nc3c2ncn3-c2ccsc2)cc1 | > 21.3 µM (inactive)
Cc1ccccc1-c1cscc1Nc1cnn(-c2cccc(C(=O)Nc3ccc(N4CCOCC4)cc3)c2)c1 | > 19.2 µM (inactive)
FC(F)(F)c1ccc(Cn2cnc3c(NCc4ccccc4)nc(-c4ccc(N5CCOCC5)nc4)nc32)cc1 | > 19.9 µM (inactive)
Cc1cnc(-c2ccc(C(N)=O)cc2)nc1Nc1ccc(N2CCOCC2)cc1 | inactive
CC(C)CNC(=O)c1ccc2c(c1)CC(c1nc3ncc(-c4ccnc(N)n4)cc3[nH]1)CO2 (stereo not given) | > 19.2 µM (inactive)
Fc1cnc(Nc2ccc(N3CCNCC3)cc2)cc1-n1cnc(Nc2ccccc2)n1 | > 19.2 µM (inactive)
O=C(Cc1cn(-c2ccc(N3CCN(Cc4ccc5c(c4)OCO5)CC3)nn2)c2ccccc12)Nc1ccc(N2CCOCC2)cc1 | > 20 µM (inactive)
Cn1ccc2cc(-c3cc(Nc4ccc(N5CCOCC5)cc4)nc(N)n3)ccc21 | > 20 µM (inactive)
c1ccc(N2CCN(c3nc(Nc4ccc(N5CCOCC5)cc4)c4ncn(-c5ccsc5)c4n3)CC2)nc1 | inactive
c1ccc(N2CCN(c3nc(Nc4ccc(N5CCOCC5)cc4)c4ncn(C5CCCCC5)c4n3)CC2)nc1 | > 22.8 µM (inactive)
FC(F)(F)c1cc(-c2ccnc(Nc3ccc(N4CCOCC4)cc3)n2)cc(N2CCOCC2)c1 | > 19.2 µM (inactive)
Cc1cc(NC2CCN(Cc3ccccc3)CC2)nc(Nc2ccc(N3CCOCC3)cc2)n1 | inactive
CN1CCN(c2nc(C3COc4ccccc4O3)nc3ccc(-c4cn[nH]c4)cc23)CC1 (stereo not given) | > 19.2 µM (inactive)
FC(F)(F)c1ccc(Cn2cnc3c(NC4CCN(Cc5ccccc5)CC4)nc(Nc4ccc(N5CCOCC5)cc4)nc32)cc1 | inactive
Cn1cc(-c2ccc3cnc(Nc4ccc(-c5ccc(N6CCOCC6)nc5)cc4)nc3c2Cl)cn1 | > 19.2 µM (inactive)
Nc1nc(Nc2ccc(N3CCOCC3)cc2)cc(-c2ccc3[nH]ccc3c2)n1 | 8.21 µM
c1cc(-c2ccc3[nH]ncc3c2)nc(Nc2ccc(N3CCOCC3)cc2)n1 | > 19.2 µM (inactive)

More lines, now with the values ahead:

IC50 | SMILES
inactive | CC(C)n1cnc2c(Nc3ccc(N4CCOCC4)cc3)nc(N3CCN(Cc4ccc5c(c4)OCO5)CC3)nc21
> 19.8 µM (inactive) | FC(F)(F)c1ccc(Cn2cnc3c(NCc4cccc(C(F)(F)F)c4)nc(Nc4ccc5ncccc5c4)nc32)cc1
8.62 µM | FC(F)(F)c1cccc(CNc2nc(Nc3ccc(N4CCOCC4)cc3)nc3c2ncn3-c2ccsc2)c1
> 19.2 µM (inactive) | COc1c(-c2cnn(C)c2)ccc2cnc(Nc3ccc(-n4cnc(N5CCOCC5)n4)cc3)nc12
inactive | CCN(CC)c1nc(Nc2ccc3c(c2)OCO3)nc(N2CCC(N3CCOCC3)CC2)n1
inactive | COc1cc(Nc2nc(N3CCc4ccccc4C3)nc3c2ncn3-c2ccccc2)cc(OC)c1OC
> 19.9 µM (inactive) | CC(C)n1cnc2c(Nc3ccc4c(c3)OCO4)nc(Nc3cccc(N(C)C)c3)nc21
5.66 µM | c1ccc(OCCNc2nc(Nc3ccc(N4CCOCC4)cc3)nc3c2ncn3C2CCCCC2)cc1
> 20 µM (inactive) | COc1cc2nc(Nc3ccc(N4CCOCC4)cc3)nc(NCc3ccccc3)c2cc1OC
inactive | c1cc(-n2cnc3c(Nc4ccc(N5CCOCC5)cc4)nc(N4CCN(Cc5ccc6c(c5)OCO6)CC4)nc32)cs1
inactive | Cc1cc(Nc2ccc3c(c2)OCO3)nc(N2CCN(Cc3ccc4c(c3)OCO4)CC2)n1
6.99 µM | Cc1cc(NCCOc2ccccc2)nc(Nc2cccc(N(C)C)c2)n1
inactive | FC(F)(F)c1ccc(Cn2cnc3c(Nc4ccc(N5CCOCC5)cc4)nc(N4CCN(Cc5ccc6c(c5)OCO6)CC4)nc32)cc1
inactive | COc1cc2nc(Nc3ccc(N4CCOCC4)cc3)nc(NC3CC3)c2cc1OC
> 19.2 µM (inactive) | Cc1nc(C)n(-c2ccc(Nc3nccc(-c4cc(F)cc(-c5ncco5)c4)n3)cc2)n1
> 18.2 µM (inactive) | Nc1cccc(-c2nc3ncnc(Nc4ccc(N5CCOCC5)cc4)c3[nH]2)c1
inactive | CC(C)n1cnc2c(Nc3ccc4c(c3)OCO4)nc(NCc3ccc4c(c3)OCO4)nc21
inactive | CN(C)c1cccc(Nc2nc(NCCc3ccc(O)cc3)c3ncn(Cc4ccc(C(F)(F)F)cc4)c3n2)c1

IC50 | SMILES
7.74 µM | COc1cc2nc(Nc3cccc(N(C)C)c3)nc(Nc3ccc(NC(C)=O)cc3)c2cc1OC
9.41 µM | c1ccc(CN2CCC(Nc3nc(Nc4ccc(N5CCOCC5)cc4)nc4c3ncn4-c3ccsc3)CC2)cc1
> 19.9 µM (inactive) | O=C1CCCN1CCCNc1nc(Nc2ccc(-n3ccnc3)cc2)nc2c1ncn2-c1ccsc1
inactive | COc1ccc(CCNc2nc(Nc3ccc(N4CCOCC4)cc3)nc3cc(OC)c(OC)cc23)cc1
> 20 µM (inactive) | CN(C)c1cccc(Nc2nc(NCCc3ccc(O)cc3)c3ncn(C4CCCCC4)c3n2)c1
inactive | COc1cc2nc(Nc3ccc(N4CCOCC4)cc3)nc(NCCOc3ccccc3)c2cc1OC
inactive | FC(F)(F)c1cccc(CNc2nc(Nc3ccc(N4CCOCC4)cc3)nc3nc[nH]c23)c1
> 19.9 µM (inactive) | c1cc(-n2cnc3c(Nc4ccc5c(c4)OCO5)nc(N4CCN(Cc5ccc6c(c5)OCO6)CC4)nc32)cs1
7.76 µM | COc1ccc(CCNc2ccnc(Nc3cccc(N(C)C)c3)n2)cc1
> 21.9 µM (inactive) | c1cn(-c2ccc(Nc3nc4ncnc(Nc5ccc6c(c5)OCO6)c4[nH]3)cc2)cn1
inactive | COc1cc2nc(Nc3nccc4ccccc34)nc(Nc3ccc(N4CCOCC4)cc3)c2cc1OC
> 20 µM (inactive) | CN(C)c1cccc(Nc2nc(NCCc3ccc(O)cc3)c3ncn(-c4ccccc4)c3n2)c1
> 20 µM (inactive) | COc1cc2nc(Nc3ccc4ncccc4c3)nc(Nc3ccc(NC(C)=O)cc3)c2cc1OC
> 19.2 µM (inactive) | Cc1nc(C)n(-c2ccc(Nc3nccc(-c4cccc(-n5cncn5)c4)n3)cc2)n1
8.86 µM | Cc1cnc(Nc2ccc(N3CCOCC3)cc2)nc1NCc1cccc(C(F)(F)F)c1
> 20 µM (inactive) | COc1cc2nc(Nc3ccc(-n4ccnc4)cc3)nc(Nc3ccc4c(c3)OCO4)c2cc1OC
inactive | Oc1ccc(CCNc2nc(N3CCN(Cc4ccc5c(c4)OCO5)CC3)nc3c2ncn3-c2ccsc2)cc1
